{
  "source": "patent US9662329B2",
  "about": "“Use of survivin antagonists in polyomavirus-related disease” (University of Pittsburgh—Of the Commonwealth System of …, priority 2012, dated 2017)",
  "key": {"[1]": {"system": "MCV-negative MCC cell line", "assay": "Cell-Titer Glo growth inhibition by YM155", "assay_type": "cell-based, human", "settings": "MCV-negative vs MCV-positive MCC cells", "protocol": "Serial drug dilutions from 10^−4 M to 10^−9 M were used on MCC and non-MCC cell lines. Cells were seeded into 384-well plates at 6000 cells in 50 μl of medium per well. After 24 hours, 25 μl of 3× drugs were added at increasing concentration to each well. Cell viability was then measured using Cell Titer Glo (Promega) kit following manufacturer's instructions as described previously. Each drug concentration was tested in triplicate for each cell line and experiments were repeated twice. EC50 doses for the drugs were calculated using a four parameter logistic equation (GraphPad Prism)."}, "BJ cells": {"system": "BJ cells", "assay": "Trypan blue dye exclusion assay", "assay_type": "cell-based, human", "settings": "48 h", "protocol": "(§1) Cells were equally seeded and treated with YM155 for 48 hours. To count blue stained dead cells, cells were treated with Accutase (Millipore), collected, resuspended in PBS, mixed with equal volume of Trypan blue (Lonza, 0.4%) and counted using a hemocytometer under the microscope. The counts were done in triplicate and the experiment was repeated three times."}, "UISO cells": {"system": "UISO cells", "assay": "Trypan blue dye exclusion assay", "assay_type": "cell-based, human", "settings": "48 h", "protocol": "as §1"}, "[2]": {"system": "survivin protein expression in MKL-1 cells", "assay": "Immunoblotting for survivin", "assay_type": "cell-based, human", "settings": "after 12 h treatment", "protocol": "Cells were lysed in buffer (RIPA or 10 mM Tris-HCl pH 8.0, 0.6% SDS) containing protease inhibitor cocktail (Roche). Lysates were electrophoresed in 10% SDS-PAGE, transferred to nitrocellulose membrane (Amersham) and reacted with specific antibodies (CM2B4, (1:5000 dilution) (Shuda et al., Human Merkel cell polyomavirus infection I. MCV T antigen expression in Merkel cell carcinoma, lymphoid tissues and lymphoid tumors. Int J Cancer 125, 1243 (Sep. 15, 2009)), cleaved PARP, cleaved caspase3, survivin, XIAP, p53, Bcl-2, Bax (1:1000 dilution, Cell Signalling Technologies), E2F1, cyclin E (1:1000 dilution, Santa Cruz Biotechnology), LC3 (1:1000 dilution, Novus Biologicals) or α-tubulin (1:5000 dilution, Sigma)) overnight at 4° C., followed by anti-mouse (1:5000 dilution, Amersham) or anti-rabbit IgG-HRP conjugates (1:3000 dilution, Cell signaling) for 1 hour at room temperature. Peroxidase activity was detected using Western Lightning plus-ECL reagent (Perkin Elmer). For quantitative immunoblotting, Odyssey Infrared Imaging system (LICOR) was used with IRDye 800-conjugated secondary antibodies (1:5000 dilution, Rockland Immuno chemicals)."}, "MKL-1 cells": {"system": "MKL-1 cells", "assay": "Immunoblotting for cPARP, cCaspase 3 and LC3", "assay_type": "cell-based, human", "settings": "100 nM, 48 hours"}, "[3]": {"system": "human MKL-1 MCC xenografts", "protocol": "Compounds were dissolved in sterile 0.9% saline solution for administration to animals.\nSix-week-old female triple immune-deficient NSG (Nod-SCID gamma) mice (Jackson Laboratory) were maintained in a specific pathogen-free environment.\nMCC cells were checked for viability >90% by trypan blue staining, resuspended in PBS (2×10^7 cells in 100 μl) and inoculated subcutaneously into the right flank of mice.\nAll treatments were delivered for three consecutive weeks. […] YM-155 (2 mg/kg) was given intraperitoneally on five consecutive days, followed by a two-day treatment free interval.\nTwo-tailed paired Student's t test was used to analyze statistical differences in qRT-PCR results. Mouse survival curves were estimated using the Kaplan-Meier product-limit method and were compared using the log-rank test (GraphPad Software, La Jolla, Calif.). A piecewise linear hierarchical Bayesian model (Zhao et al., Bayesian hierarchical changepoint methods in modeling the tumor growth profiles in xenograft experiments. Clinical Cancer Res 17, 1057 (Mar. 1, 2011)) was used to characterize differences in tumor volumes and growth between treatments.\nCells of Merkel cell polyomavirus (+) carcinoma cell lines MKL-1, MS-1, WaGa, and MKL-2 were checked for viability >90% by trypan blue staining, resuspended in PBS (2×10^7 cells in 100 μl) and inoculated subcutaneously into the right flank of mice.\nYM-155 was given intraperitoneally on five consecutive days, followed by a two-day treatment free interval. For YM155 this treatment continued for three weeks or until mice were euthanized. Mice were euthanized upon showing a tumor having a diameter of 20 mm, or upon a showing of significant distress (>20% weight loss or when they became moribund). Caliper measurements of the longest perpendicular tumor diameters were performed every other day and tumor volumes were calculated using the formula: (width)^2×(length/2). Survival was defined as time from the first day of treatment until death/sacrifice."}, "[4]": {"settings": "three weeks treatment, bortezomib 1 mg/kg twice weekly, YM155 2 mg/kg 5 times weekly"}},
  "data": [
    {"smiles": "COCCn1c2c([n+](Cc3cnccn3)c1C)C(=O)c1ccccc1C2=O.[Br-]", "note": "[YM155, 1-(2-methoxyethyl)-2-methyl-4,9-dioxo-3-(pyrazin-2-ylmethyl)-4,9-dihydro-1H-naphtho[2,3-d]imidazol-3-ium bromide]", "values": [
      {"measurement": "concentrations inhibiting MCV-negative MCC cell line growth, higher than for MCV-positive MCC cells", "setting": "[1]", "result": "1-2 orders of magnitude"},
      {"measurement": "cell killing, trypan blue vital dye exclusion", "setting": "BJ cells", "result": "resistant"},
      {"measurement": "cell killing, trypan blue vital dye exclusion", "setting": "UISO cells", "result": "relatively less sensitive"},
      {"measurement": "survivin protein expression", "setting": "[2]", "result": "dose-dependent decrease"},
      {"measurement": "LC3-II accumulation (marker for cell autophagy)", "setting": "MKL-1 cells", "result": "did not initiate LC3-II accumulation"},
      {"measurement": "apoptosis measured by caspase 3 and PARP cleavage", "setting": "MKL-1 cells", "result": "No evidence of apoptosis"},
      {"measurement": "survival after initiation of treatment", "setting": "[3]; Example 2, 2 mg/kg for three weeks", "result": "almost two months"},
      {"measurement": "survival after treatment began", "setting": "[3]; Example 2, continuously at 4 mg/kg", "result": "more than three months"},
      {"measurement": "tumor growth after treatment was stopped", "setting": "[3]; after single 3-week course, 2 mg/kg", "result": "all tumors resumed growth once YM155 was stopped"},
      {"measurement": "tolerability / adverse effects in mice", "setting": "[3]; bortezomib 1 mg/kg twice weekly, YM155 2 mg/kg 5 times weekly", "result": "well-tolerated and no adverse effects or acute toxicities were noted"},
      {"measurement": "mice dying during treatment (up to day 19)", "setting": "[3]; [4]", "result": "none"},
      {"measurement": "xenograft tumor growth / progression during treatment", "setting": "[3]; [4]", "result": "markedly delayed MKL-1 xenograft growth"}
    ]}
  ]
}
